Measured values from patent US9284321B2, “Piperazino[1,2-a]indol-1-ones and [1,4]diazepino[1,2-a]indol-1-one” (Hoffmann-La Roche Inc., priority 2012, dated 2016).

How the values were obtained:
[1] = tested on: human embryonic stem cell derived neural stem cells (NSCs); test: Neural Stem Cell Proliferation Assay (neurogenesis assay, ATP levels by CellTiterGlo); format: cell-based; conditions: 96 h, compound concentration at which 150% activity of control (100%) is reached, NSC proliferation by ATP level after 4 days incubation, dose response 8 μM to 8 nM
In short: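 Human ESC-derived NSCs (dual SMAD inhibition) seeded 4 h before compounds, 11-point 2-fold series 8 μM–8 nM; 4 days at 37 °C, 5% CO2. ATP by CellTiterGlo luminescence as cell-number proxy, response as % of media control (0.25% DMSO); EC150 = concentration giving 150% of control.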

SMILES	melting point [°C]	EC (150% of control) [1] [µM]
Cc1c2n(c3c(-c4ccnc(Cl)c4)cc(Cl)cc13)CCNC2=O [Example 119, 8-Chloro-6-(2-chloro-pyridin-4-yl)-10-methyl-3,4-dihydro-2H-pyrazino[1,2-a]indol-1-one]	270	0.16
Cc1c2n(c3c(-c4ccc(Cl)cc4Cl)cc(F)cc13)CCNC2=O [Example 120, 6-(2,4-Dichloro-phenyl)-8-fluoro-10-methyl-3,4-dihydro-2H-pyrazino[1,2-a]indol-1-one]	214	0.01
Cc1c2n(c3c(-c4ccc(Cl)cc4F)cc(F)cc13)CCNC2=O [Example 121, 6-(4-Chloro-2-fluoro-phenyl)-8-fluoro-10-methyl-3,4-dihydro-2H-pyrazino[1,2-a]indol-1-one]	221	0.01
Cc1c2n(c3c(-c4ccc(F)cc4F)cc(F)cc13)CCNC2=O [Example 122, 6-(2,4-Difluoro-phenyl)-8-fluoro-10-methyl-3,4-dihydro-2H-pyrazino[1,2-a]indol-1-one]	204	0.013
Cc1c2n(c3c(-c4ccc5c(c4)OCO5)cc(F)cc13)CCNC2=O [Example 123, 6-Benzo[1,3]dioxol-5-yl-8-fluoro-10-methyl-3,4-dihydro-2H-pyrazino[1,2-a]indol-1-one]	206	0.031
Cc1c2n(c3c(-c4ccc(C#N)cc4)cc(F)cc13)CCNC2=O [Example 124, 4-(8-Fluoro-10-methyl-1-oxo-1,2,3,4-tetrahydro-pyrazino[1,2-a]indol-6-yl)-benzonitrile]	295	0.023
Cc1c2n(c3c(-c4ccc(S(C)(=O)=O)cc4)cc(F)cc13)CCNC2=O [Example 125, 8-Fluoro-6-(4-methanesulfonyl-phenyl)-10-methyl-3,4-dihydro-2H-1-pyrazino[1,2-a]indol-1-one]	292	0.015
Cc1c2n(c3c(-c4ccc([N+](=O)[O-])cc4)cc(F)cc13)CCNC2=O [Example 126, 8-Fluoro-10-methyl-6-(4-nitro-phenyl)-3,4-dihydro-2H-pyrazino[1,2-a]indol-1-one]	309	0.01
Cc1c2n(c3c(-c4ccc(C(C)C)cc4)cc(F)cc13)CCNC2=O [Example 127, 8-Fluoro-6-(4-isopropyl-phenyl)-10-methyl-3,4-dihydro-2H-pyrazino[1,2-a]indol-1-one]	177	0.025
Cc1c2n(c3c(-c4cccc(Cl)c4)cc(F)cc13)CCNC2=O [Example 128, 6-(3-Chloro-phenyl)-8-fluoro-10-methyl-3,4-dihydro-2H-pyrazino[1,2-a]indol-1-one]	182	0.22
Cc1c2n(c3c(-c4ccc5c(c4)CCO5)cc(F)cc13)CCNC2=O [Example 129, 6-(2,3-Dihydro-benzofuran-5-yl)-8-fluoro-10-methyl-3,4-dihydro-2H-pyrazino[1,2-a]indol-1-one]	251	0.022
Cc1c2n(c3c(-c4ccc(CO)cc4)cc(F)cc13)CCNC2=O [Example 130, 8-Fluoro-6-(4-hydroxymethyl-phenyl)-10-methyl-3,4-dihydro-2H-pyrazino[1,2-a]indol-1-one]	220	0.011
Cc1c2n(c3c(-c4cccc(C#N)c4)cc(F)cc13)CCNC2=O [Example 131, 3-(8-Fluoro-10-methyl-1-oxo-1,2,3,4-tetrahydro-pyrazino[1,2-a]indol-6-yl)-benzonitrile]	192	0.33
Cc1c2n(c3c(-c4ccc(C(C)(C)C)cc4)cc(F)cc13)CCNC2=O [Example 132, 6-(4-tert-Butyl-phenyl)-8-fluoro-10-methyl-3,4-dihydro-2H-pyrazino[1,2-a]indol-1-one]	216	0.046
Cc1c2n(c3c(-c4ccc(OC(F)(F)F)cc4)cc(Cl)cc13)CCNC2=O [Example 133, 8-Chloro-10-methyl-6-(4-trifluoromethoxy-phenyl)-3,4-dihydro-2H-pyrazino[1,2-a]indol-1-one]	212	0.004
Cc1cc(-c2cc(Cl)cc3c(C)c4n(c23)CCNC4=O)ccc1F [Example 134, 8-Chloro-6-(4-fluoro-3-methyl-phenyl)-10-methyl-3,4-dihydro-2H-pyrazino[1,2-a]indol-1-one]	235.5	0.083
Cc1c2n(c3c(-c4ccc(Cl)c(C(F)(F)F)c4)cc(Cl)cc13)CCNC2=O [Example 135, 8-Chloro-6-(4-chloro-3-trifluoromethyl-phenyl)-10-methyl-3,4-dihydro-2H-pyrazino[1,2-a]indol-1-one]	268	0.036

SMILES	melting point [°C]	EC (150% of control) [1] [µM]
Cc1c2n(c3c(-c4cc(F)c(F)c(F)c4)cc(Cl)cc13)CCNC2=O [Example 136, 8-Chloro-10-methyl-6-(3,4,5-trifluoro-phenyl)-3,4-dihydro-2H-pyrazino[1,2-a]indol-1-one]	253	0.021
Cc1c2n(c3c(-c4cccnc4)cc(Cl)cc13)CCNC2=O [Example 137, 8-Chloro-10-methyl-6-pyridin-3-yl-3,4-dihydro-2H-pyrazino[1,2-a]indol-1-one]	252.5	0.088
Cc1c2n(c3c(-c4cncnc4)cc(Cl)cc13)CCNC2=O [Example 138, 8-Chloro-10-methyl-6-pyrimidin-5-yl-3,4-dihydro-2H-pyrazino[1,2-a]indol-1-one]	306	0.21
Cc1c2n(c3c(-c4ccnc(F)c4)cc(F)cc13)CCNC2=O [Example 139, 8-Fluoro-6-(2-fluoro-pyridin-4-yl)-10-methyl-3,4-dihydro-2H-pyrazino[1,2-a]indol-1-one]	240	0.027
Cc1c2n(c3c(-c4ccnc(Cl)c4)cc(F)cc13)CCNC2=O [Example 140, 6-(2-Chloro-pyridin-4-yl)-8-fluoro-10-methyl-3,4-dihydro-2H-pyrazino[1,2-a]indol-1-one]	254	0.12
Cc1c2n(c3c(-c4ccc(F)nc4)cc(F)cc13)CCNC2=O [Example 141, 8-Fluoro-6-(6-fluoro-pyridin-3-yl)-10-methyl-3,4-dihydro-2H-pyrazino[1,2-a]indol-1-one]	247	0.13
COc1ncc(-c2cc(Cl)cc3c(C)c4n(c23)CCNC4=O)cn1 [Example 142, 8-Chloro-6-(2-methoxy-pyrimidin-5-yl)-10-methyl-3,4-dihydro-2H-pyrazino[1,2-a]indol-1-one]	270.5	0.039
Cc1c2n(c3c(-c4cnc(N)nc4)cc(Cl)cc13)CCNC2=O [Example 143, 6-(2-Amino-pyrimidin-5-yl)-8-chloro-10-methyl-3,4-dihydro-2H-pyrazino[1,2-a]indol-1-one]	316	0.32
Cc1c2n(c3c(-c4ccc(N(C)C)cc4)cc(F)cc13)CCNC2=O [Example 145, 6-(4-Dimethylamino-phenyl)-8-fluoro-10-methyl-3,4-dihydro-2H-pyrazino[1,2-a]indol-1-one]	256	0.017
COc1ccc(-c2cc(F)cc3c(C)c4n(c23)CCNC4=O)cn1 [Example 146, 8-Fluoro-6-(6-methoxy-pyridin-3-yl)-10-methyl-3,4-dihydro-2H-pyrazino[1,2-a]indol-1-one]	226	0.02
Cc1ccc(-c2cc(F)cc3c(C)c4n(c23)CCNC4=O)cc1F [Example 147, 8-Fluoro-6-(3-fluoro-4-methyl-phenyl)-10-methyl-3,4-dihydro-2H-pyrazino[1,2-a]indol-1-one]	206	0.039
Cc1cc(-c2cc(F)cc3c(C)c4n(c23)CCNC4=O)ccc1F [Example 148, 8-Fluoro-6-(4-fluoro-3-methyl-phenyl)-10-methyl-3,4-dihydro-2H-pyrazino[1,2-a]indol-1-one]	236	0.078
Cc1c2n(c3c(-c4ccc(OC(F)(F)F)cc4)cc(F)cc13)CCNC2=O [Example 149, 8-Fluoro-10-methyl-6-(4-trifluoromethoxy-phenyl)-3,4-dihydro-2H-pyrazino[1,2-a]indol-1-one]	162	0.016
Cc1c2n(c3c(-c4ccc(Cl)c(C(F)(F)F)c4)cc(F)cc13)CCNC2=O [Example 150, 6-(4-Chloro-3-trifluoromethyl-phenyl)-8-fluoro-10-methyl-3,4-dihydro-2H-pyrazino[1,2-a]indol-1-one]	240	0.61
Cc1c2n(c3c(-c4ccc(F)c(F)c4F)cc(F)cc13)CCNC2=O [Example 151, 8-Fluoro-10-methyl-6-(2,3,4-trifluoro-phenyl)-3,4-dihydro-2H-pyrazino[1,2-a]indol-1-one]	130	0.035
Cc1c2n(c3c(-c4cccnc4)cc(F)cc13)CCNC2=O [Example 152, 8-Fluoro-10-methyl-6-pyridin-3-yl-3,4-dihydro-2H-pyrazino[1,2-a]indol-1-one]	239	0.13
Cc1c2n(c3c(-c4ccc(F)c(F)c4F)cc(Cl)cc13)CCNC2=O [Example 153, 8-Chloro-10-methyl-6-(2,3,4-trifluoro-phenyl)-3,4-dihydro-2H-pyrazino[1,2-a]indol-1-one]	205.5	0.029
